Assay results: patent publication US7728146B2, “Enzyme inhibitors” (Probiodrug AG, priority 2006, dated 2010)
Read-outs that look alike come from different tables or passages of the source.

Molecular target: DP IV (Homo sapiens, UniProt P27487)
Experiment: DP IV inhibition IC50, parallel-synthesis compounds tested directly following synthesis (without purification)
Format: biochemical
Set-up: IC50 DP4; other: tested directly following parallel synthesis, without purification; compounds of formula (Ib) from parallel synthesis, tested directly following synthesis
Method: Compounds were immediately tested regarding their activity as DP IV inhibitors.
Substances are screened for inhibition of dipeptidyl peptidase (DP IV) by their ability to inhibit the hydrolysis of the DP IV specific substrate Glycyl-Prolyl-4-Nitroanilide (Gly-Pro-pNA). All compounds are diluted in DMSO and IC50 will be determined with 11 serial dilutions (1:2) starting with an final concentration of 100 μM. The final DMSO concentration in the assay is 5% (v/v). The method was automated using a Tecan Genesis Freedom liquid handler and a Genius Pro (Tecan) microplate reader.
DP IV from porcine kidney (pDP IV) or recombinant human DP IV (rhDP IV) is diluted in HEPES buffer to a final activity of approximately 40-50 μU*ml^−1. The DP IV is stored in a cooling rack (4° C.) on the liquid handler.
The assay may becarried out at room temperature using Freedom liquid handler connected with a Genios Pro microplate reader. Each sample is measured in duplicate. Each sample stock solution is prediluted with DMSO in a ratio of 1:5 in a polypropylen 96-well plate. From this predilution 10 serial (1:2) dilutions in DMSO are prepared. 13.5 μl of the 11 DMSO dilutions and DMSO alone are transferred to the measurement microplate (duplicates) and 86.5 μl water, 100 μl HEPES buffer and 50 μl substrate solution are added to each well. The enzymatic reaction is started by addition of 20 μl enzyme solution to each well, and then the microplate is immediately transferred to the microplate reader.
After short mixing (20 s) the release of 4-Nitroanilin (pNA) is monitored at 405 nm for 30 cycles (approx. 18 min).
Post assay calculations are done by the Magellan (Tecan) and Graphit Software. The linear slopes are calculated for each well and averaged for the duplicates. The residue activities are calculated in relation to a sample containing only solvent instead of inhibitor and expressed in %. Residue activities are plotted against the log of inhibitor concentrations and IC50 is calculated by an 4-parameter fitting ranging from 0 to 100%.

[1] = DP IV inhibition, compounds of formula (Ib) from parallel synthesis, tested directly following synthesis (without purification), read-out: IC50
[2] = tested directly following parallel synthesis, without purification, read-out: IC50 DP4

## CCn1cnc(-c2ccc(Cl)cc2Cl)c1CN [122b, C-[5-(2,4-Dichloro-phenyl)-3-ethyl-3H-imidazol-4-yl]-methylamine]
[1]
  IC50: 46 µM

## NCc1c(-c2ccc(Cl)cc2Cl)ncn1Cc1ccc(F)c(F)c1 [Example 92b, C-[5-(2,4-dichloro-phenyl)-3-(3,4-difluoro-benzyl)-3H-imidazol-4-yl]-methylamine]
[1]
  IC50: 1 µM

## NCc1c(-c2ccc(F)cc2F)ncn1Cc1ccccc1F [Example 86a, C-[5-(2,4-Difluoro-phenyl)-3-(2-fluoro-benzyl)-3H-imid-azol-4-yl]-methyl-amine]
[2]
  IC50: 32.5 µM

## CC(C)(C)Cn1cnc(-c2ccc(F)cc2F)c1CN [Example 83a, C-[5-(2,4-Difluoro-phenyl)-3-(2,2-dimethyl-propyl)-3H-imid-azol-4-yl]-methyl-amine]
[2]
  IC50: 27.1 µM

## NCc1c(-c2ccc(Cl)cc2Cl)ncn1Cc1ccccc1Cl [Example 34a, C-[3-(2-Chloro-benzyl)-5-(2,4-di-chloro-phenyl)-3H-imid-azol-4-yl]-methyl-amine]
[2]
  IC50: 1 µM

## NCc1c(-c2ccc(Cl)cc2Cl)ncn1Cc1c(F)cccc1F [Example 37a, C-[5-(2,4-Dichloro-phenyl)-3-(2,6-difluoro-benzyl)-3H-imid-azol-4-yl]-methyl-amine]
[2]
  IC50: 4.6 µM

## NCc1c(-c2ccc(Cl)cc2Cl)ncn1Cc1ccco1 [Example 33a, C-[5-(2,4-Dichloro-phenyl)-3-furan-2-ylmethyl-3H-imidazol-4-yl]-methylamine]
[2]
  IC50: 0.1 µM

## NCc1c(-c2ccc(F)cc2F)ncn1Cc1ccc2c(c1)OCO2 [Example 81a, C-[3-Ben-zo[1,3]di-oxol-5-yl-methyl-5-(2,4-difluoro-phenyl)-3H-imid-azol-4-yl]-methyl-amine]
[2]
  IC50: 46.9 µM

## NCc1c(-c2ccc(Cl)cc2Cl)ncn1Cc1ccc(OC(F)(F)F)cc1 [97b, C-[5-(2,4-Dichloro-phenyl)-3-(4-trifluoromethoxy-benzyl)-3H-imidazol-4-yl]-methylamine]
[1]
  IC50: 2.8 µM

## NCc1c(-c2ccc(Cl)cc2Cl)ncn1Cc1ccccc1 [Example 47a, C-[3-Ben-zyl-5-(2,4-dichloro-phenyl)-3H-imid-azol-4-yl]-methyl-amine]
[2]
  IC50: 0.1 µM

## NCc1c(-c2ccc(Cl)cc2Cl)ncn1CCNC1CCCCC1 [4b, {2-[5-Aminomethyl-4-(2,4-dichloro-phenyl)-imidazol-1-yl]-ethyl}-cyclohexyl-amine]
[1]
  IC50: 10 µM

## NCc1c(-c2ccc(Cl)cc2Cl)ncn1CCCN1CCCC1=O [29b, 1-{3-[5-Aminomethyl-4-(2,4-dichloro-phenyl)-imidazol-1-yl]-propyl}-pyrrolidin-2-one]
[1]
  IC50: 22.6 µM

## NCc1c(-c2ccc(Cl)cc2Cl)ncn1Cc1cccc(C(F)(F)F)c1 [Example 38a, C-[5-(2,4-Dichloro-phenyl)-3-(3-tri-fluoromethyl-benzyl)-3H-imid-azol-4-yl]-methyl-amine]
[2]
  IC50: 1 µM

## NCc1c(-c2ccc(Cl)cc2Cl)ncn1CCNc1ccc([N+](=O)[O-])cn1 [20b, {2-[5-Aminomethyl-4-(2,4-dichloro-phenyl)-imidazol-1-yl]-ethyl}-(5-nitro-pyridin-2-yl)-amine]
[1]
  IC50: 8.2 µM

## CC(N)c1c(-c2ccc(Cl)cc2Cl)ncn1CCCCCCO (stereo not drawn) [34b, 6-[5-(1-Amino-ethyl)-4-(2,4-dichloro-phenyl)-imidazol-1-yl]-hexan-1-ol]
[1]
  IC50: 38.8 µM

## NCc1c(-c2ccc(F)cc2Cl)ncn1Cc1ccccc1Cl [Example 3a, C-[3-(2-Chloro-benzyl)-5-(2-chlo-ro-4-fluoro-phenyl)-3H-imid-azol-4-yl]-methyl-amine]
[2]
  IC50: 18.1 µM

## NCc1c(-c2ccc(Cl)cc2Cl)ncn1CCc1ccccn1 [85b, C-[5-(2,4-Dichloro-phenyl)-3-(2-pyridin-2-yl-ethyl)-3H-imidazol-4-yl]-methylamine]
[1]
  IC50: 24.4 µM

## NCc1c(-c2ccc(Cl)cc2Cl)ncn1Cc1ccncc1 [94b, C-[5-(2,4-Dichloro-phenyl)-3-pyridin-4-ylmethyl-3H-imidazol-4-yl]-methylamine]
[1]
  IC50: 8.2 µM

## NCc1c(-c2ccc(F)cc2F)ncn1Cc1ccc(F)cc1F [Example 76a, C-[3-(2,4-Difluoro-benzyl)-5-(2,4-difluoro-phenyl)-3H-imid-azol-4-yl]-methyl-amine]
[2]
  IC50: 40.6 µM

## NCc1c(-c2ccc(Cl)cc2Cl)ncn1Cc1ccc(F)cc1F [Example 39a, C-[5-(2,4-Dichloro-phenyl)-3-(2,4-difluoro-benzyl)-3H-imid-azol-4-yl]-methyl-amine]
[2]
  IC50: 1 µM

## NCc1c(-c2ccc(F)cc2Cl)ncn1Cc1c(F)cccc1Cl [Example 13a, C-[3-(2-Chloro-6-fluoro-benzyl)-5-(2-chloro-4-fluoro-phenyl)-3H-imid-azol-4-yl]-methyl-amine]
[2]
  IC50: 36.1 µM

## NCc1c(-c2ccc(Cl)cc2Cl)ncn1CCO [56b, 2-[5-Aminomethyl-4-(2,4-dichloro-phenyl)-imidazol-1-yl]-ethanol]
[1]
  IC50: 19.9 µM

## NCc1c(-c2ccc(F)cc2Cl)ncn1Cc1cc(Br)ccc1F [Example 12a, C-[3-(5-Bromo-2-fluoro-benzyl)-5-(2-chloro-4-fluoro-phenyl)-3H-imid-azol-4-yl]-methyl-amine]
[2]
  IC50: 32.5 µM

## CC(N)c1c(-c2ccc(Cl)cc2Cl)ncn1CCCc1ccccc1 (stereo not drawn) [70b, 1-[5-(2,4-Dichloro-phenyl)-3-(3-phenyl-propyl)-3H-imidazol-4-yl]-ethylamine]
[1]
  IC50: 41.5 µM

## NCc1c(-c2ccc(Cl)cc2Cl)ncn1Cc1cccnc1 [Example 66a, C-[5-(2,4-Dichloro-phenyl)-3-pyri-din-3-yl-methyl-3H-imid-azol-4-yl]-methyl-amine]
[2]
  IC50: 0.1 µM

## NCc1c(-c2ccc(F)cc2F)ncn1Cc1cccc(C(F)(F)F)c1 [Example 75a, C-[5-(2,4-Difluoro-phenyl)-3-(3-tri-fluoromethyl-benzyl)-3H-imid-azol-4-yl]-methyl-amine]
[2]
  IC50: 28.9 µM

## COc1ccc(-c2ncn(Cc3cc(Br)ccc3F)c2CN)c(C)c1 [Example 71a, C-[3-(5-Bro-mo-2-fluoro-benzyl)-5-(4-meth-oxy-2-methyl-phenyl)-3H-imid-azol-4-yl]-methyl-amine]
[2]
  IC50: 30.7 µM

## CCNCCn1cnc(-c2ccc(Cl)cc2Cl)c1CN [69b, {2-[5-Aminomethyl-4-(2,4-dichloro-phenyl)-imidazol-1-yl]-ethyl}-ethyl-amine]
[1]
  IC50: 19 µM

## NCc1c(-c2ccc(F)cc2Cl)ncn1Cc1ccco1 [Example 2a, C-[5-(2-Chloro-4-fluoro-phenyl)-3-furan-2-yl-methyl-3H-imid-azol-4-yl]-methyl-amine]
[2]
  IC50: 16.3 µM

## NCc1c(-c2ccc(Cl)cc2Cl)ncn1CCc1ccc(Cl)cc1 [102b, C-[3-[2-(4-Chloro-phenyl)-ethyl]-5-(2,4-dichloro-phenyl)-3H-imidazol-4-yl]-methylamine]
[1]
  IC50: 19 µM

## Cc1ccccc1Cn1cnc(-c2ccc(Cl)cc2Cl)c1CN [Example 33b, C-[5-(2,4-dichloro-phenyl)-3-(2-methyl-benzyl)-3H-imidazol-4-yl]-methylamine]
[1]
  IC50: 4.6 µM

## NCc1c(-c2ccc(Cl)cc2Cl)ncn1Cc1cccs1 [Example 32a, C-[5-(2,4-Di-chloro-phenyl)-3-thio-phen-2-yl-methyl-3H-imid-azol-4-yl]-methyl-amine]
[2]
  IC50: 0.1 µM

## CC(N)c1c(-c2ccc(Cl)cc2Cl)ncn1CCN1CCOCC1 (stereo not drawn) [118b, 1-[5-(2,4-Dichloro-phenyl)-3-(2-morpholin-4-yl-ethyl)-3H-imidazol-4-yl]-ethylamine]
[1]
  IC50: 49.6 µM
